Read-outs that look alike come from different tables or passages of the source.
How the values were obtained:
[1] = Reduction of body temperature in mice (Irwin technique); details: p.o.
[2] = system: rats with 6-OHDA induced unilateral lesions of the dopaminergic nigrostriatal pathway; test: Turning-behaviour (antagonism to rotational behaviour by dopaminergic agents in rats with 6-OHDA induced unilateral lesions); assay type: in vivo; details: rat, p.o.
[3] = system: apomorphine-induced climbing behaviour in mice; test: Apomorphine antagonism in mice (apomorphine-induced climbing behaviour, Protais et al.); assay type: in vivo; details: Mus musculus, po
[4] = system: neuromuscular coordination in the rat; test: Rotarod test (neuromuscular coordination in the rat); assay type: in vivo; details: p.o.
[5] = LD50 / acute toxicity in mice; details: mouse, in vivo, po, approximate LD50
[6] = system: spontaneous activity in mice; test: Reduction of spontaneous activity in mice (Irwin technique); details: p.o.
catalepsy in rats = test: Catalepsy induction in rats; assay type: in vivo; details: rat, p.o.
[7] = system: conditioned Avoidance Response in the rat; test: C.A.R. test (interference with conditioned Avoidance Response in the rat); assay type: in vivo; details: p.o.
[8] = mouse, in vivo, po
[9] = system: spontaneous activity in mice; details: mouse, in vivo, po

Structure (SMILES)	Reduction of body temperature in mice (min. active dose) [1]	Min. active dose in Turning-behaviour [2]	ED50 [3]	Min. active dose in Rotarod test [4]	LD50 [5]	Reduction of spontaneous activity in mice (min. active dose) [6]	Min. active dose in Catalepsy induction (catalepsy in rats)	Min. active dose in C.A.R. test [7]	Reduction of body temperature in mice (min. active dose) [8]	Reduction of spontaneous activity in mice (min. active dose) [9]
O=C1Nc2ccc(Br)cc2C2(CCN(CCCC(=O)c3ccc(F)cc3)CC2)O1 [Example 1, 1'-[3-(4-Fluorobenzoyl)propyl]spiro-(3,1-benzoxazine-6-bromo-4(2H)4'-piperidin)-2-one]	100 mg/kg p.o.	> 20 mg/kg p.o.	1.7 mg/kg	> 50 mg/kg p.o.	> 800 mg/kg	12.5 mg/kg p.o.	> 200 mg/kg p.o.	25 mg/kg p.o.	–	–
O=C1Nc2ccc([N+](=O)[O-])cc2C2(CCN(CCCC(=O)c3ccc(F)cc3)CC2)O1 [Example 3, 1'-[3-(4-fluorobenzoyl)propyl]spiro-(3,1-benzoxazine-6-nitro-4(2H)4'-piperidin)-2-one]	110 mg/kg p.o.	> 15 mg/kg p.o.	2.7 mg/kg	50 mg/kg p.o.	> 800 mg/kg	15 mg/kg p.o.	200 mg/kg p.o.	20 mg/kg p.o.	–	–
O=C(CCCN1CCC(O)(c2ccc(Cl)cc2)CC1)c1ccc(F)cc1 [Haloperidol, haloperidol, reference compound]	–	0.5 mg/kg p.o.	0.2 mg/kg	0.5 mg/kg p.o.	~75 mg/kg	–	0.5 mg/kg p.o.	0.5 mg/kg p.o.	3.12 mg/kg p.o.	0.78 mg/kg p.o.

Reference: patent US4558049A, “Antipsycotic benzoxazines” (Farmitalia Carlo Erba S.p.A., priority 1982, dated 1985)
